Laboratory results published in PMC7288171, “Synergistic Effects of Thiosemicarbazides with Clinical Drugs against S. aureus” (Molecules, 2020).
In brackets after ≈: the same amount, converted by molar mass. Read-outs that look alike come from different tables or passages of the source.

Key:
[1] = system: MRSA-1; experiment: MIC, clinical isolate of S. aureus; format: cell-based; conditions: Staphylococcus aureus; clinical isolate MRSA-1; read-out: MIC
Description: (§1) The antibacterial activity of the thiosemicarbazides 1–9 and antibiotics (amoxicillin, gentamicin, levofloxacin, linezolid, and vancomycin) was tested on the Gram-positive strains (Microbiologics, St. Cloud, MN, USA) (S. aureus ATCC 25923, S. aureus ATCC 6538, S. epidermidis ATCC 12228, B. subtilis ATCC 6633, B. cereus ATCC 10876, M. luteus ATCC 10240), the Gram-negative strains (Microbiologics, St. Cloud, MN, USA) (E. coli ATCC 25922, K. pneumoniae ATCC 13883, P. mirabilis ATCC 12453, P. aeruginosa ATCC 9027), and clinical isolates of S. aureus (Medical University of Lublin, Lublin, Poland) (MSSA-1, MSSA-2, MSSA-3, MSSA-4, MRSA-1).

[2] = system: MSSA-2; experiment: MIC, clinical isolate of S. aureus; format: cell-based; conditions: Staphylococcus aureus; clinical isolate MSSA-2; read-out: MIC
Description: as §1

[3] = system: MSSA-3; experiment: MIC, clinical isolate of S. aureus; format: cell-based; conditions: Staphylococcus aureus; clinical isolate MSSA-3; read-out: MIC
Description: as §1

[4] = system: MSSA-4; experiment: MIC, clinical isolate of S. aureus; format: cell-based; conditions: Staphylococcus aureus; clinical isolate MSSA-4; read-out: MIC
Description: as §1

[5] = system: MSSA-1; experiment: MIC, clinical isolate of S. aureus; format: cell-based; conditions: Staphylococcus aureus; clinical isolate MSSA-1; read-out: MIC
Description: as §1

[6] = system: S. aureus ATCC 25923; experiment: Checkerboard broth dilution synergy assay; format: cell-based
Description: The microdilution checkerboard method was used to evaluate the synergistic effects between the thiosemicarbazides 1–9 and antibiotics, which were determined as the fractional inhibitory concentration indices (FICIs). For these experiments, amoxicillin, gentamicin, levofloxacin, linezolid, and vancomycin were selected to represent the five antimicrobial classes most commonly used in clinical practice. In this way, a total of 45 combinations of thiosemicarbazide-amoxicillin, thiosemicarbazide-gentamicin, thiosemicarbazide-levofloxacin, thiosemicarbazide-linezolid, and thiosemicarbazide-vancomycin against S. aureus ATCC 25923 were tested to identify in vitro synergy effects.
Interaction of the thiosemicarbazides 1–9 in combination with amoxicillin, gentamicin, levofloxacin, linezolid or vancomycin against S. aureus ATCC 25923 were analyzed using the checkerboard broth dilution method to determine the fractional inhibitory concentration indices (FICIs), calculated as: FIC = MIC of drug A in combination/MIC of drug A alone + MIC of drug B in combination/MIC of drug B alone. The calculated FICIs were interpreted as synergistic (FIC ≤ 0.5), additive (0.5 < FIC < 1), indifferent (1 ≤ FIC < 4.0), or antagonistic (FIC ≥ 4.0). The checkerboard assay included ciprofloxacin-carvedilol combination as positive control, whereas cefuroxime in combination with 4-(4-bromophenyl)-1-(3-fluorobezoyl)thiosemicarbazide served as negative control. The Z-factor value for the bioassay was 0.683.

[7] = system: human foreskin fibroblast Hs27 cells (CRL-1634); experiment: MTT cytotoxicity assay; format: cell-based; conditions: Homo sapiens, 24 h of treatment
Description: (§2) A critical factor in research and development of new antibacterial agents is their abilities to selectively target bacterial cells without toxicity to mammalian cells. Thus, in order to test if antibacterial activity of title thiosemicarbazides is not due to their general toxicity, their effect on mammalian cell viability was assessed using human foreskin fibroblast Hs27 cells (CRL-1634) via MTT assay.
(§3) Cytotoxic properties of the compounds were evaluated using human foreskin fibroblast cells Hs27 (ATCC CRL-1634) (ATCC, Manassas, VA, USA) that were cultured in DMEM-high glucose (Sigma Aldrich, St. Louis, MO, USA). Medium was supplemented with 10% fetal bovine serum (FBS, Sigma Aldrich), 100 U/mL of penicillin, and […] of streptomycin (PenStrep, Sigma Aldrich, St. Louis, MO, USA). Cells were incubated at 37 °C in a humidified atmosphere of 5% CO2. Stock solutions of the tested compounds were prepared dissolving in a sterile dimethyl sulfoxide (DMSO) to the concentration of 50 mg/mL. The cells were seeded into 96-well sterile plates (Nunc) at a cell density of 1 × 10^5 cells/mL. After 24 h of incubation, the medium was removed from each well, and then cells were incubated for the next 24 h with tested compounds (in a fixed dose of 25 µg/mL) in DMEM-high glucose containing 2% FBS. Control cells were cultured only with medium containing 2% addition of FBS. Cytotoxicity of the compounds was evaluated using MTT assay, which is based on the conversion of 3-(4,5-dimethylthiazol-2-yl)-2,5- diphenyltetrazolium bromide (MTT) into dark-blue formazan crystals. Briefly, after 24-h incubation of cells with varying concentrations of the tested compounds, culture medium was removed from the plates. Cells were washed with PBS, and then 100 µL of medium containing 10% MTT solution (5 mg/mL) was added to each well. Cells were incubated for the next 3 h at 37 °C in an atmosphere of 5% CO2. Next, 100 µL (per well) of 10% sodium dodecyl sulfate (SDS) buffer solution was added to dissolve formazan crystals and after an overnight incubation the absorbance was measured at 570 nm using a microplate reader (Epoch, BioTek Instruments, Inc., Winooski, VT, USA).

[8] = MTT cytotoxicity assay; format: cell-based, human; conditions: human, Hs27 foreskin fibroblast cells (ATCC CRL-1634), 25 µg/mL, 24 h, vehicle control = 100%
Description: as §2, §3

[9] = system: M. luteus ATCC 10240; experiment: MIC, broth microdilution; format: cell-based; conditions: Micrococcus luteus, ATCC10240; M. l. ATCC 10240; compounds 6–9 and antibiotics; read-out: MIC
Description: as §1

[10] = system: S. aureus ATCC 6538; experiment: MIC, broth microdilution; format: cell-based; conditions: Staphylococcus aureus, ATCC6538; S. a. ATCC 6538; compounds 6–9 and antibiotics; read-out: MIC
Description: as §1

[11] = system: S. aureus ATCC 25923; experiment: MIC, broth microdilution; format: cell-based; conditions: S. a. ATCC 25923, compounds 6–9 and antibiotics
Description: as §1

[12] = system: B. subtilis ATCC 6633; experiment: MIC, broth microdilution; format: cell-based; conditions: Bacillus subtilis, ATCC6633; B. s. ATCC 6633; compounds 6–9 and antibiotics; read-out: MIC
Description: as §1

[13] = system: S. epidermidis ATCC 12228; experiment: MIC, broth microdilution; format: cell-based; conditions: Staphylococcus epidermidis, ATCC12228; S. e. ATCC 12228; compounds 6–9 and antibiotics; read-out: MIC
Description: as §1

[14] = system: B. cereus ATCC 10876; experiment: MIC, broth microdilution; format: cell-based; conditions: Bacillus cereus, ATCC10876; B. c. ATCC 10876; compounds 6–9 and antibiotics; read-out: MIC
Description: as §1

[15] = target: T1, S. aureus DNA gyrase (Staphylococcus aureus, UniProt P0A0K8+P20831); experiment: Gyrase supercoiling assay; format: biochemical; conditions: read-out: S. aureus Gyrase DNA Inhibition (%) ± SD
T1 construct: purchased Inspiralis, Norwich, UK
Description: Supercoiling assay: The assays were performed using S. aureus Gyrase Supercoiling Assay Kits (Inspiralis, Norwich, UK). Briefly, […] pBR322 plasmid DNA (0.5 µg) was incubated with 1 unit of gyrase, in the dedicated supercoiling assay buffer supplied by the manufacturer, in the presence of varying concentrations of the test compounds. Reactions were carried out at 37 °C for 1 h and then terminated by the addition of equal volume of 2 × STOP Buffer (40% sucrose, 100 mM Tris-Cl pH 7.5, 1 mM EDTA, and 0.5 mg/mL bromophenol blue) and chloroform/iso-amyl alcohol. Samples were vortexed, centrifuged, and run through a 15 cm 1% agarose gel in TAE buffer (40 mM Tris-acetate, 2 mM EDTA) for 3 h at 50 V. Gels were stained with ethidium bromide and visualized under UV light.

[16] = target: T2, S. aureus topoisomerase IV (Staphylococcus aureus, UniProt P0C1S7+P0C1U9); experiment: Topoisomerase IV decatenation assay; format: biochemical; conditions: in words; 50 and 100 µM tested (Figures S1–S3)
T2 construct: purchased Inspiralis, Norwich, UK
Description: Inhibition of decatenation activity of S. aureus topoisomerase IV: The assay was performed using S. aureus topoisomerase IV decatenation kits (Inspiralis, Norwich, UK). Interlinked kDNA substrate (0.5 µg) was incubated with 1 unit of topoisomerase IV (Inspiralis, Norwich, UK), in the dedicated decatenation assay buffer supplied by the manufacturer, in the presence of varying concentrations of the test compounds. Reactions were carried out at 37 °C for 1 h and then terminated by the addition of equal volume of 2 × STOP Buffer and chloroform/iso-amyl alcohol. Samples were vortexed, centrifuged, and run through a 15 cm 1% agarose gel in TAE buffer for 1.5 h at 80 V. Gels were stained with ethidium bromide and visualized under UV light.

[17] = Staphylococcus aureus, ATCC25923, read-out: MIC

T1 sequence (P20831 whole entry): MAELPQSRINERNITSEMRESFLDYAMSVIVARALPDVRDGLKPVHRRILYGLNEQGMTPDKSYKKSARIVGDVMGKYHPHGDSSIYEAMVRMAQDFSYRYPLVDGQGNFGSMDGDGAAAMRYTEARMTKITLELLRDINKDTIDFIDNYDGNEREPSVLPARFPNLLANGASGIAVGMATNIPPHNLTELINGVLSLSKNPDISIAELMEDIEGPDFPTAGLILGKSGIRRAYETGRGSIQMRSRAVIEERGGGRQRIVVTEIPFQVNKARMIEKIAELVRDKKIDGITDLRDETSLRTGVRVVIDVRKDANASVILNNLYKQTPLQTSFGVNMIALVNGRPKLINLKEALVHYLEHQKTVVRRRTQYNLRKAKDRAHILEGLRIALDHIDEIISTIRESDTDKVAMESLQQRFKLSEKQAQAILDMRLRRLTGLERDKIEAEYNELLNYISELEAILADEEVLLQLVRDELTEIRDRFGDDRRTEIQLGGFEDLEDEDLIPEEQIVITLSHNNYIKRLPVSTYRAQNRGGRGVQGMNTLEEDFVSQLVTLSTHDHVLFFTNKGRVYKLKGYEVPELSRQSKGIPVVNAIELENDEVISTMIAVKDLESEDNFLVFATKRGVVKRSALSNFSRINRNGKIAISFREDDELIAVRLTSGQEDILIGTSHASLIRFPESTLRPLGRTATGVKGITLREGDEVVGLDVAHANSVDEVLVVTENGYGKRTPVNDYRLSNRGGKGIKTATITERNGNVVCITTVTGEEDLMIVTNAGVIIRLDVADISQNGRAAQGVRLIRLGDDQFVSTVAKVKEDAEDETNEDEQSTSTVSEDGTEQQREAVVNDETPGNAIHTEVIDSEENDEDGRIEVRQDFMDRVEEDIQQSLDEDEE
T1 sequence (P0A0K8 whole entry): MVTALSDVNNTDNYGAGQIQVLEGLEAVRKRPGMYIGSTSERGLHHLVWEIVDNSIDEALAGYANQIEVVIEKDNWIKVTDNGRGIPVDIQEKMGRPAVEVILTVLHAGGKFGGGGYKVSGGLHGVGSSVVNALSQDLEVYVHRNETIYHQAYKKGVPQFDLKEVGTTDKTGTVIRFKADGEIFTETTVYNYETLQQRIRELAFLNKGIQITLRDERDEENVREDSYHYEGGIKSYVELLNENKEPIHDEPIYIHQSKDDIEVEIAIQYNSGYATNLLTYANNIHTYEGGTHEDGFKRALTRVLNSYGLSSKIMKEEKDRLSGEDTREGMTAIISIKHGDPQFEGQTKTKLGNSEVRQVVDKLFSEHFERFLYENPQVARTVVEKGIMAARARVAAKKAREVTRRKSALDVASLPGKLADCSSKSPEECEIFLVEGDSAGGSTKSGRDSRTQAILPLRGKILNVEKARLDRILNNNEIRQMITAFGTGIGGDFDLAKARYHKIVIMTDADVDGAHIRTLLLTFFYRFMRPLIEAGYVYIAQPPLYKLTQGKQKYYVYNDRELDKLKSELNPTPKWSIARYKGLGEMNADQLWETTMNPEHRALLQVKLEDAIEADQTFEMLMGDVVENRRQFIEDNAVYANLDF
T2 sequence (P0C1U9 whole entry): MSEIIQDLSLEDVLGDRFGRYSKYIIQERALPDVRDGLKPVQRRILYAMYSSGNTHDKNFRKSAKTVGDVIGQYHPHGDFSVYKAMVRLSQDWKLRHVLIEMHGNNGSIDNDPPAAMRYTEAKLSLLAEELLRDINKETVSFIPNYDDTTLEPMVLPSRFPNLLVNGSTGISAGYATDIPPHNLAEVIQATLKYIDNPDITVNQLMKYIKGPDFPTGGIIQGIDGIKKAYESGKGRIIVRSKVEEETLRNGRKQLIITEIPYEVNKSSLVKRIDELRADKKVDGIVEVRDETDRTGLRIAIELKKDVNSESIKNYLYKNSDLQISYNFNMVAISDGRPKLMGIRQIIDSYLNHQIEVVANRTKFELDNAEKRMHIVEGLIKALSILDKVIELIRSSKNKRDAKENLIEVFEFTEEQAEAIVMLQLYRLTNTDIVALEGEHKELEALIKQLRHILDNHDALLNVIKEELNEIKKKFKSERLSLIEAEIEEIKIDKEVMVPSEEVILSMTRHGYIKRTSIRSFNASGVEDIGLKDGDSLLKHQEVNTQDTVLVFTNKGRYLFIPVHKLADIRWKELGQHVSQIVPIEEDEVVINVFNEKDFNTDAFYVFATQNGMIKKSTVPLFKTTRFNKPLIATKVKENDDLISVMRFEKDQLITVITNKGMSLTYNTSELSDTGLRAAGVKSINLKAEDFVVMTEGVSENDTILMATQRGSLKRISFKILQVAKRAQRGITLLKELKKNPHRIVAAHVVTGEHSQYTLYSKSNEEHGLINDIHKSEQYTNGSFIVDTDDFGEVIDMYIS
T2 sequence (P0C1S7 whole entry): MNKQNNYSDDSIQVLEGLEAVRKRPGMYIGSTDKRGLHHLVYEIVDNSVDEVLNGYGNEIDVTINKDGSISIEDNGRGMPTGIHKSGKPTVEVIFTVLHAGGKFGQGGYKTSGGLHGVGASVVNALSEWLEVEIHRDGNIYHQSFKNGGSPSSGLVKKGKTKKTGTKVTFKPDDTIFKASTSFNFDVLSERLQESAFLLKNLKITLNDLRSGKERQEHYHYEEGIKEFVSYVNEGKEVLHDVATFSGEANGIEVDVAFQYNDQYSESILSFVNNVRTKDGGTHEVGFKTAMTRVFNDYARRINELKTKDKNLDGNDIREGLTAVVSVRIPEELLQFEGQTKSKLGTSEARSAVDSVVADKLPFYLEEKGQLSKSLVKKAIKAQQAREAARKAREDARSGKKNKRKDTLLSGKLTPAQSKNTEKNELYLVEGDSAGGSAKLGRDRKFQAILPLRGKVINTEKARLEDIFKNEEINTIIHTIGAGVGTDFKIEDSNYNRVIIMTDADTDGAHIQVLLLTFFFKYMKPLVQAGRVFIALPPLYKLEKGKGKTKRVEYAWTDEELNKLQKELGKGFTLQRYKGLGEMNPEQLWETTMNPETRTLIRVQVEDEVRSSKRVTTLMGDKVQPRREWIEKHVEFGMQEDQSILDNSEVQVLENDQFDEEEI

Structure (SMILES) | melting point [°C] | MIC [1] [µg/mL] | MIC [2] [µg/mL] | MIC [3] [µg/mL] | MIC [4] [µg/mL] | MIC [5] [µg/mL] | interaction in combination ([6]; combination with amoxicillin) | interaction in combination ([6]; combination with gentamicin) | interaction in combination ([6]; combination with levofloxacin) | interaction in combination ([6]; combination with linezolid) | interaction in combination ([6]; combination with vancomycin) | IC50 [7] [µg/mL] | viability at 24 h, 25 µg/mL [8] [%] | MIC [9] [µg/mL] | MIC [10] [µg/mL] | MIC [11] [µg/mL] | MIC [11, 17] [µg/mL] | MIC [12] [µg/mL] | MIC [13] [µg/mL] | MIC [14] [µg/mL] | also measured
O=C(NNC(=S)Nc1cccc(Cl)c1)c1ccccc1F [compound 7, 4-(3-chlorophenyl)-1-(2-fluorobenzoyl)thiosemicarbazide] | 158 to 160 | 500 (≈ 1540 µM) | > 500 | 125 (≈ 386 µM) | 125 (≈ 386 µM) | 125 (≈ 386 µM) | additively | no interactions | synergistically | no interactions | antagonistic | > 25 | 93.2 | 7.82 (≈ 24.2 µM) | 31.2 (≈ 96.5 µM) | 62.50 (≈ 193 µM) | 62.5 (≈ 193 µM) | 15.6 (≈ 48.3 µM) | 31.2 (≈ 96.5 µM) | 31.2 (≈ 96.5 µM) | inhibition at 50 µM ([15]; 50 µM): 23.8 ± 5.02%; inhibition at 100 µM ([15]; 100 µM): 33.1 ± 1.04%
O=C(NNC(=S)Nc1cccc(C(F)(F)F)c1)c1ccccc1F [compound 8, 1-(2-fluorobenzoyl)-4-(3-trifluoromethylphenyl)thiosemicarbazide] | 176 to 178 | > 500 | > 500 | > 500 | > 500 | 62.5 (≈ 175 µM) | indifferently | indifferently | additively | additively | indifferently | > 25 | 65.2 | 7.82 (≈ 21.9 µM) | 15.6 (≈ 43.7 µM) |  | 15.6 (≈ 43.7 µM) | 7.82 (≈ 21.9 µM) | 7.82 (≈ 21.9 µM) | 7.82 (≈ 21.9 µM) | inhibitory action against topoisomerase IV [16]: no inhibitory effects
O=C(NNC(=S)Nc1cccc(Br)c1)c1ccccc1F [compound 9, 4-(3-bromophenyl)-1-(2-fluorobenzoyl)thiosemicarbazide] | 166 to 168 | 125 (≈ 339 µM) | > 500 | > 500 | 125 (≈ 339 µM) | 62.5 (≈ 170 µM) | indifferently | indifferently | additively | additively | indifferently | > 25 | 63.1 | 7.82 (≈ 21.2 µM) | 62.5 (≈ 170 µM) | 62.50 (≈ 170 µM) | 62.5 (≈ 170 µM) | 15.6 (≈ 42.4 µM) | 31.2 (≈ 84.9 µM) | 15.6 (≈ 42.4 µM) | inhibitory action against topoisomerase IV [16]: no inhibitory effects
